# Data taken from publication PMC5642495, “Characterization of a novel androgen receptor (AR) coregulator RIPK1 and related chemicals that suppress AR-mediated prostate cancer growth via peptide and chemical screening” (Oncotarget, 2017).
# pIC50: −log10 of the molar value.
# How the values were obtained:
# [1] = system: LNCaP; assay: cell growth assay (MTT), LNCaP; format: cell-based; conditions: Homo sapiens, 48 h, Figure 4B, read-out: IC50, prostate cancer cell line growth
# Experimental: LNCaP, CWR22R, and PC-3 cells were grown in RPMI containing 10% FBS. Cells were plated at a density of 5 × 10^4 cells/well in 24-well plates overnight and incubated with difference concentrations of chemicals for 48 h. Cell growth was assessed using the 3-{4,5-dimethylthiazol-2-yl}-2,5-diphenyltetrazolium bromide (MTT) assay. At each time-point, 50 μl of 5 mg/ml MTT was added to each well containing 500 μl medium and incubated for 3 h, followed by the addition of 500 μl isopropyl alcohol to dissolve the reduced formazan product. Absorbance of each well was measured at a wavelength of 590 nm in a DU 640B spectrophotometer (Beckman, Fullerton, CA), according to the manufacturer’s protocol. Values represent mean OD590 ± SD from at least three independent reaction wells.
# [2] = biological target: T1, AR N-C interaction (Homo sapiens, UniProt P10275); assay: AR N-C interaction reporter assay in PC-3 cells; format: cell-based; conditions: 10 nM DHT, Figure 6A
# T1 construct: pCDNA3-hAR-C (residues 556–919); expressed in transfected cells; host or cells: PC-3
# T1 sequence (P10275 556-919): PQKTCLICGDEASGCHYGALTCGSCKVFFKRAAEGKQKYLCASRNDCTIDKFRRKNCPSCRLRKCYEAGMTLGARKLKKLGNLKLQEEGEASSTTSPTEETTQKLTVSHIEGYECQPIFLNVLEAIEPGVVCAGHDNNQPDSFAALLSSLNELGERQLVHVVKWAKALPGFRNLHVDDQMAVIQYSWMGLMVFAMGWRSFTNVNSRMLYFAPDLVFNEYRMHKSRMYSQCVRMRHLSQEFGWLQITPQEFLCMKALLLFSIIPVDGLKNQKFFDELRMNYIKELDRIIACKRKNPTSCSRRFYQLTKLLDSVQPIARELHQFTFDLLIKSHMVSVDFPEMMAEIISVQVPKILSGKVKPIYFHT
# Experimental: (§1) Figure 6 Mechanism underlying suppression of AR-related functions by oxadiazole derivatives (A–C) Transcriptional activity in reporter assays. PC-3 cells in 24-well plates were transfected as indicated below. After incubation for 16 h, cells were treated with ethanol, 10 nM DHT, or 0.01–10 μM HWC-489 or LHJ-647 for an additional 16 h. Luciferase activity in cell lysates was determined and normalized to protein concentrations. Relative luciferase activity was calculated using the luciferase reporter assay system. (A) PC-3 cells were co-transfected with 350 ng pCDNA3-flag-hAR-N (residues 1–506), 350 ng pCDNA3-hAR-C (residues 556–919), and 300 ng MMTV-Luc plasmids. (B) PC-3 cells were co-transfected with 350 ng GAL4-DBD-3-18, 350 ng pCMX-VP16-AR, and 300 ng pG5-Luc plasmids. (C) PC-3 cells were transfected with 350 ng GAL4-DBD-ARA54C, 350 ng VP16-AR, and 300 ng pG5-Luc plasmids. (D) LHJ-647 promotes AR protein degradation.
# [3] = biological target: T2, AR-peptide interaction (Homo sapiens, UniProt P10275); assay: AR-peptide interaction reporter assay (GAL4-DBD-3-18 / VP16-AR) in PC-3 cells; format: cell-based; conditions: 10 nM DHT, Figure 6B
# T2 construct: expressed in transfected cells; host or cells: PC-3
# T2 sequence (P10275 1-920): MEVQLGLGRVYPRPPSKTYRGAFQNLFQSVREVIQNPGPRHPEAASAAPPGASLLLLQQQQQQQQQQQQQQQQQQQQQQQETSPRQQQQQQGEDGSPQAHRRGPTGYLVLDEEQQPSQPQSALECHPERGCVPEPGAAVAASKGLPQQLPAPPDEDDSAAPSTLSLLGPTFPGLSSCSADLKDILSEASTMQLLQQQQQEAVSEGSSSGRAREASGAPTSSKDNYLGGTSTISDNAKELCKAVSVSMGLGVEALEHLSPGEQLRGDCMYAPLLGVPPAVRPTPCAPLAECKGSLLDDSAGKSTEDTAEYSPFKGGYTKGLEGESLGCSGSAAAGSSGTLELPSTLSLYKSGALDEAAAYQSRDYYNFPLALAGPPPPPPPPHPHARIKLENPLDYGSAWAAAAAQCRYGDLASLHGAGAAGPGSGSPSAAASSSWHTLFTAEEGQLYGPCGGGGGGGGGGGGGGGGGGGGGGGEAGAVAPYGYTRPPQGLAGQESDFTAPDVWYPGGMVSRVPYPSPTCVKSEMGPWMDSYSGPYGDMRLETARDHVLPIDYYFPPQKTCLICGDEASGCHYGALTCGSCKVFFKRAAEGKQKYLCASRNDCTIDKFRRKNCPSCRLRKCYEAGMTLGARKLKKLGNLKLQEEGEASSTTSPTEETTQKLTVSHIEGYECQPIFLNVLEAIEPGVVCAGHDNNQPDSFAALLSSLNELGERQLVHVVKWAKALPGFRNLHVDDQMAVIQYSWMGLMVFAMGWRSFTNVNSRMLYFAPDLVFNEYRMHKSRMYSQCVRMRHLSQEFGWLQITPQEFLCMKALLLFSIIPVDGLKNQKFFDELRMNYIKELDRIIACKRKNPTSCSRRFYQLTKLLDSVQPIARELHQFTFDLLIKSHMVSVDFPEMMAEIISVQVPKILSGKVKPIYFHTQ
# Experimental: as §1
# [4] = biological target: T3, AR-cofactor interaction (Homo sapiens, UniProt P10275); assay: AR-cofactor interaction reporter assay (GAL4-DBD-ARA54C / VP16-AR) in PC-3 cells; format: cell-based; conditions: 10 nM DHT, Figure 6C
# T3 construct: expressed in transfected cells; host or cells: PC-3
# T3 sequence (P10275 1-920): T2 sequence (P10275 1-920)
# Experimental: as §1
# [5] = system: NOD/SCID mice; assay: treatment toxicity monitoring in xenograft mice; format: in vivo; conditions: for changes in body weight, clinical signs and gross morphology: during the study period; for mouse mortality: in vivo
# Experimental: All experiments involving laboratory animals were conducted in accordance with the Guidelines for Animal Experiments of Chang Gung Memorial Hospital and approved by the Animal Research Committee at the hospital. LNCaP cells were harvested, washed twice with phosphate-buffed saline, and resuspended at a final concentration of 5 × 10^6 cells/mL in Matrigel (BD Biosciences, San Jose, CA) containing basement membrane components. Next, 5 × 10^5 cells (100 μL per site) were subcutaneously injected into the flanks of 4–6 week-old male NOD/SCID mice (BioLASCO, Taiwan). Tumor development was confirmed within 2–3 weeks after injection of the same number of cell subclones. Treatment with different chemicals was initiated at the same time. Tumor dimensions were measured twice a week with calipers, and tumor volumes calculated using the formula: tumor volume (mm^3) = tumor length (mm) × [tumor width (mm)]^2 × 0.5. Three to five mice were used per group (with or without chemical treatment). Mice were sacrificed 4 weeks after chemical injection and tumors harvested for further analyses. For evaluation of treatment toxicity, animal mortality, changes in body weight, clinical signs and gross morphology were monitored during the experiment.
smiles,measurement,setting,value
Cc1ccc(-c2nnc(Nc3ccccc3)o2)cc1 [HWC-489],pIC50,[1],5.00 to 6.00
same,concentration range of significant suppression of AR N-C interaction,[2],0.1 to 1 µM
same,concentration range of significant suppression of AR-peptide interaction,[3],0.1 to 1 µM
same,concentration range of significant suppression of AR-cofactor interaction,[4],0.1 to 1 µM
same,"changes in body weight, clinical signs and gross morphology",[5],no significant alterations
same,mouse mortality,[5],No mouse mortality was observed
COc1cccc(Nc2nnc(-c3ccc(N(C)C)cc3)o2)c1 [LHJ-647],pIC50,[1],5.00 to 6.00
same,concentration range of significant suppression of AR N-C interaction,[2],0.1 to 1 µM
same,concentration range of significant suppression of AR-peptide interaction,[3],0.1 to 1 µM
same,concentration range of significant suppression of AR-cofactor interaction,[4],0.1 to 1 µM
same,"changes in body weight, clinical signs and gross morphology",[5],no significant alterations
same,mouse mortality,[5],No mouse mortality was observed
